One block for each compound: values may come before it.
Tests used:
Human primary T cells [1] = test: T cell activation: secreted IFN-y; assay type: cell-based; settings: 48 hours, fold over background normalized to Compound 141A; for IFN-y 1 nM: 1 nM compound; for IFN-y 10 nM: 10 nM compound; for IFN-y 100 nM: 100 nM compound
Procedure: (§1) Human primary T cells were isolated from commercially available frozen peripheral blood mononuclear cells (HemaCare Corporation) or from fresh LeukoPaks (Research Blood Components). T cells were isolated through depletion of non-T cells using negative selection kit according to the manufacturer's protocol (Miltenyi Biotec, Human Pan T Cell Isolation Kit, 130-096-535). Isolated cells were cultured overnight at 37° C. with 5% CO2 and plated at 1×10^5 cells per well in XVivo-15 serum-free media (Lonza, 04-418Q) into 96 well plates coated with anti-CD3 (OKT3) antibody (ThermoFisher, 16-0037-85). To coat the plates for T cell capture, anti-CD3 antibody was diluted in PBS at 10 μg/mL and 100 μl added to each well. Plates were incubated at 4° C. overnight or at 37° C. for 2 hours and washed once with PBS before use. Serial dilutions of each compound were added in duplicates to the T cells to assess their effect on T cell activation. T cells treated with 5 μg/mL of CD28 antibody (ThermoFisher, 16-0289-85) or T cells stimulated by CD3 only were used as a control. Plates were incubated with the Cbl-b inhibitors for 48 hours at 37° C. with 5% CO2, and supernatants were subsequently analyzed for levels of the activation induced secreted cytokines IL-2 or IFN-y (BD Biosciences CBA Flex Beads, 558269, 558270). T cells were additionally stained with anti-CD69 antibody (Invitrogen, 12-0699-42 which labels a T cell activation associated membrane protein to and surface expression was measured by flow cytometry (ThermoFisher Attune NxT).
(§2) To control for natural inter-donor variability in T cell responses intrinsic to using primary human donor derived cells, secreted IL-2 and IFN-y measurements for each test compound were reported as the fold increase of the compound treated levels over background (antiCD3/CD28 treatment only) normalized to the values obtained for Compound 141A. Results for compound treatment-induced changes in CD69 levels are similarly reported as the fold increase due to compound treatment over anti-CD3 stimulated background only, normalized to values obtained for Compound 141A.
Normalized T cell IFN-y responses were sorted into ranges as follows: fold over background between 1.10 and 2.00: range “A”, values between 0.31 and 1.00: range “B;” values between 0.10 and 0.30: range “C”, and values between 0.01 and 0.09: range “D.”

Human primary T cells [2] = test: T cell activation: CD69 surface expression by flow cytometry; assay type: cell-based; settings: fold over anti-CD3 stimulated background normalized to Compound 141A; for CD69 10 nM: 10 nM compound; for CD69 100 nM: 100 nM compound
Procedure: as §1, §2
Similarly, bins for normalized CD69 levels were sorted into ranges as follows: fold over background values between 1.11 and 1.6: range “X”, values between 0.81 and 1.10: range “A”; values between 0.61 and 0.80: range “B;” values between 0.30 and 0.60: range “C”.

Human primary T cells [3] = test: T cell activation: secreted IL-2; assay type: cell-based; settings: 48 hours, fold over background normalized to Compound 141A; for IL-2 1 nM: 1 nM compound; for IL-2 10 nM: 10 nM compound; for IL-2 100 nM: 100 nM compound
Procedure: as §1, §2
Normalized T cell IL-2 responses were sorted into ranges as follows: fold over background values between 1.41 and 1.8: range “X”, between 0.80 and 1.40: range “A”, values between 0.31 and 0.79: range “B” values between 0.10 and 0.30: range “C”, values between 0.01 and 0.09: range “D.”

[4] = biological target: Cbl-b (36-427 aa truncated form, N-terminus Avi-tag) (Homo sapiens (Human), UniProt Q13191); test: Cbl-b binding: TR-FRET displacement of BODIPY-FL probe
Sequence of Cbl-b (36-427 aa truncated form, N-terminus Avi-tag) (Q13191 36-427): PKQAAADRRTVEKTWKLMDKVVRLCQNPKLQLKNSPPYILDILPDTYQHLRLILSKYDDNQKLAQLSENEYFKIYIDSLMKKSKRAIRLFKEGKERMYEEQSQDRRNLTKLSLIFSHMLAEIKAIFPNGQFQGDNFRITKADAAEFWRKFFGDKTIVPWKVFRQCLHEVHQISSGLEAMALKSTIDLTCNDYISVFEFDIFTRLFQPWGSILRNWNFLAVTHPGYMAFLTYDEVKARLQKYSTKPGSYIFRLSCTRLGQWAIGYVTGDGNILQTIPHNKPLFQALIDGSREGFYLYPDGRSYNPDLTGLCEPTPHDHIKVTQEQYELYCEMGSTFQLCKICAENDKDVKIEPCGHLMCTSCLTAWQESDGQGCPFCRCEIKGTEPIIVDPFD
Procedure: Compounds were assessed for binding activity to Cbl-b by their ability to compete with and displace a probe comprised of BODIPY-FL fluorophore conjugated to a Cbl-b inhibitor (see Example 54 in WO2020264398). In the assay, a 36-427 aa truncated form of Cbl-b with an N-terminus Avi-tag was incubated 20 mM HEPES pH 7.5, 150 mM NaCl, 0.01% Triton X-100, 0.1% BSA, 0.5 mM TCEP buffer with streptavidin-terbium (Cisbio). After one hour of incubation at room temperature, 1 uM each of fluorescent probe and compound were combined with the reaction mixture. Compounds with Cbl-b binding activity competitively displace the fluorophore tagged inhibitor thereby disrupting the FRET signal from the terbium-BODIPY-FL complex. The reaction mixtures were incubated for one additional hour at room temperature to allow for competition between inhibitor and candidate compounds to occur. The time resolved FRET (TR-FRET) signal was then read at 520/620 […] (excitation/emission) using a Spectramax M5e plate reader (Molecular Devices) to measure probe displacement. Compounds with Cbl-b binding activity had decreased FRET signal owing to disruption of the terbium-BODIPY-FL FRET complex. Standard methods in PRISM were used to calculate the compound IC50 values from the experimental data.

Compound: C[C@H]1CCCN(Cc2cc3c(c(C(F)(F)F)c2)CN(c2cc(C4(Cc5nncn5C)COC4)cc(OCCO)n2)C3=O)C1 [Compound 100, 2-[6-(2-hydroxyethoxy)-4-{3-[(4-methyl-1,2,4-triazol-3-yl)methyl]oxetan-3-yl}pyridin-2-yl]-6-{[(3S)-3-methylpiperidin-1-yl]methyl}-4-(trifluoromethyl)-3H-isoindol-1-one]
IFN-y 1 nM (Human primary T cells [1]): C (values between 0.10 and 0.30: range “C”)
IFN-y 10 nM (Human primary T cells [1]): B (values between 0.31 and 1.00: range “B;”)
IFN-y 100 nM (Human primary T cells [1]): B (values between 0.31 and 1.00: range “B;”)
CD69 10 nM (Human primary T cells [2]): C (values between 0.30 and 0.60: range “C”)
CD69 100 nM (Human primary T cells [2]): A (values between 0.81 and 1.10: range “A”)
IL-2 1 nM (Human primary T cells [3]): C (values between 0.10 and 0.30: range “C”)
IL-2 10 nM (Human primary T cells [3]): B (values between 0.31 and 0.79: range “B”)
IL-2 100 nM (Human primary T cells [3]): B (values between 0.31 and 0.79: range “B”)

Compound: CCOc1cc(C2(Cc3nncn3C)COC2)cc(N2Cc3c(cc(CN4CCC[C@H](C)C4)cc3C(F)(F)F)C2=O)n1 [Compound 146]
IFN-y 1 nM (Human primary T cells [1]): B (values between 0.31 and 1.00: range “B;”)
IFN-y 10 nM (Human primary T cells [1]): A (fold over background between 1.10 and 2.00: range “A”)
IFN-y 100 nM (Human primary T cells [1]): A (fold over background between 1.10 and 2.00: range “A”)
CD69 10 nM (Human primary T cells [2]): A (values between 0.81 and 1.10: range “A”)
CD69 100 nM (Human primary T cells [2]): A (values between 0.81 and 1.10: range “A”)
IL-2 1 nM (Human primary T cells [3]): B (values between 0.31 and 0.79: range “B”)
IL-2 10 nM (Human primary T cells [3]): B (values between 0.31 and 0.79: range “B”)
IL-2 100 nM (Human primary T cells [3]): A (between 0.80 and 1.40: range “A”)

Compound: CCNc1cc(C2(Cc3nncn3C)COC2)cc(N2Cc3c(cc(CN4CCC[C@H](C)C4)cc3C(F)(F)F)C2=O)n1 [Compound 147]
IFN-y 1 nM (Human primary T cells [1]): B (values between 0.31 and 1.00: range “B;”)
IFN-y 10 nM (Human primary T cells [1]): A (fold over background between 1.10 and 2.00: range “A”)
IFN-y 100 nM (Human primary T cells [1]): A (fold over background between 1.10 and 2.00: range “A”)
CD69 10 nM (Human primary T cells [2]): A (values between 0.81 and 1.10: range “A”)
CD69 100 nM (Human primary T cells [2]): A (values between 0.81 and 1.10: range “A”)
IL-2 1 nM (Human primary T cells [3]): B (values between 0.31 and 0.79: range “B”)
IL-2 10 nM (Human primary T cells [3]): B (values between 0.31 and 0.79: range “B”)
IL-2 100 nM (Human primary T cells [3]): A (between 0.80 and 1.40: range “A”)

Compound: C[C@H]1CCCN(Cc2cc3c(c(C(F)(F)F)c2)CN(c2cccc([C@]4(c5nncn5C)C[C@@H](C)C4)c2)C3=O)C1 [Compound 148]
IFN-y 1 nM (Human primary T cells [1]): B (values between 0.31 and 1.00: range “B;”)
IFN-y 10 nM (Human primary T cells [1]): A (fold over background between 1.10 and 2.00: range “A”)
IFN-y 100 nM (Human primary T cells [1]): A (fold over background between 1.10 and 2.00: range “A”)
CD69 10 nM (Human primary T cells [2]): A (values between 0.81 and 1.10: range “A”)
CD69 100 nM (Human primary T cells [2]): A (values between 0.81 and 1.10: range “A”)
IL-2 1 nM (Human primary T cells [3]): B (values between 0.31 and 0.79: range “B”)
IL-2 10 nM (Human primary T cells [3]): A (between 0.80 and 1.40: range “A”)
IL-2 100 nM (Human primary T cells [3]): A (between 0.80 and 1.40: range “A”)

Compound: (3S)-1-[6-(2,5-dioxopyrrol-1-yl)hexyl]-1-({2-[6-(ethylsulfanyl)-4-{3-[(4-methyl-1,2,4-triazol-3-yl)methyl]oxetan-3-yl}pyridin-2-yl]-3-oxo-7-(trifluoromethyl)-1H-isoindol-5-yl}methyl)-3-methylpiperidin-1-ium [Compound 209]
IFN-y 1 nM (Human primary T cells [1]): C (values between 0.10 and 0.30: range “C”)
IFN-y 10 nM (Human primary T cells [1]): C (values between 0.10 and 0.30: range “C”)
IFN-y 100 nM (Human primary T cells [1]): B (values between 0.31 and 1.00: range “B;”)
CD69 10 nM (Human primary T cells [2]): C (values between 0.30 and 0.60: range “C”)
CD69 100 nM (Human primary T cells [2]): B (values between 0.61 and 0.80: range “B;”)
IL-2 1 nM (Human primary T cells [3]): C (values between 0.10 and 0.30: range “C”)
IL-2 10 nM (Human primary T cells [3]): C (values between 0.10 and 0.30: range “C”)
IL-2 100 nM (Human primary T cells [3]): B (values between 0.31 and 0.79: range “B”)

Now from value to compound:

IC50 [4]: 5.01 to 20 nM
Compound: CNCC(=O)Nc1cc(C2(Cc3nncn3C)COC2)cc(N2Cc3c(cc(CN4CCC[C@H](C)C4)cc3C(F)(F)F)C2=O)n1 [Compound 101, N-(4-{3-[(4-methyl-1,2,4-triazol-3-yl)methyl]oxetan-3-yl}-6-(6-{[(3S)-3-methylpiperidin-1-yl]methyl}-1-oxo-4-(trifluoromethyl)-3H-isoindol-2-yl)pyridin-2-yl)-2-(methylamino)acetamide; formic acid]

IC50 [4]: 100 to 1000 nM
Compound: CNCc1cc(C2(Cc3nncn3C)COC2)cc(N2Cc3c(cc(CN4CCC[C@H](C)C4)cc3C(F)(F)F)C2=O)n1 [Compound 104, 2-(4-{3-[(4-methyl-1,2,4-triazol-3-yl)methyl]oxetan-3-yl}-6-[(methylamino)methyl]pyridin-2-yl)-6-{[(3S)-3-methylpiperidin-1-yl]methyl}-4-(trifluoromethyl)-3H-isoindol-1-one; trifluoroacetic acid]

IC50 [4]: 100 to 1000 nM
Compound: CSC(C)(C)CNc1cc(C2(Cc3nncn3C)COC2)cc(N2Cc3c(cc(CN4CCC[C@H](C)C4)cc3C(F)(F)F)C2=O)n1 [Compound 105, 2-(4-{3-[(4-methyl-1,2,4-triazol-3-yl)methyl]oxetan-3-yl}-6-{[2-methyl-2-(methylsulfanyl)propyl]amino}pyridin-2-yl)-6-{[(3S)-3-methylpiperidin-1-yl]methyl}-4-(trifluoromethyl)-3H-isoindol-1-one; formic acid]

IC50 [4]: 1 to 5 nM
Compound: C[C@H]1CCCN(Cc2cc3c(c(C(F)(F)F)c2)CN(c2cc(C4(Cc5nncn5C)COC4)cc(NCCS)n2)C3=O)C1 [Compound 108, 2-(4-{3-[(4-methyl-1,2,4-triazol-3-yl)methyl]oxetan-3-yl}-6-[(2-sulfanylethyl)amino]pyridin-2-yl)-6-{[(3S)-3-methylpiperidin-1-yl]methyl}-4-(trifluoromethyl)-3H-isoindol-1-one]

IC50 [4]: 100 to 1000 nM
Compound: C#CCNc1cc(C2(Cc3nncn3C)COC2)cc(N2Cc3c(cc(CN4CCC[C@H](C)C4)cc3C(F)(F)F)C2=O)n1 [Compound 109, (S)-2-(4-(3-((4-methyl-4H-1,2,4-triazol-3-yl)methyl)oxetan-3-yl)-6-(prop-2-yn-1-ylamino)pyridin-2-yl)-6-((3-methylpiperidin-1-yl)methyl)-4-(trifluoromethyl)isoindolin-1-one]

IC50 [4]: 100 to 1000 nM
Compound: CCNc1cc([C@]2(c3nncn3C)C[C@@H](C)C2)nc(N2Cc3c(cc(CN4CCC[C@H](C)C4)cc3C(F)(F)F)C2=O)n1 [Compound 114A, 2-[4-(ethylamino)-6-[(1s,3R)-3-methyl-1-(4-methyl-1,2,4-triazol-3-yl)cyclobutyl]pyrimidin-2-yl]-6-{[(3S)-3-methylpiperidin-1-yl]methyl}-4-(trifluoromethyl)-3H-isoindol-1-one]

IC50 [4]: 100 to 1000 nM
Compound: CCNc1cc([C@]2(c3nncn3C)C[C@H](C)C2)nc(N2Cc3c(cc(CN4CCC[C@H](C)C4)cc3C(F)(F)F)C2=O)n1 [Compound 114B, 2-[4-(ethylamino)-6-[(1r,3S)-3-methyl-1-(4-methyl-1,2,4-triazol-3-yl)cyclobutyl]pyrimidin-2-yl]-6-{[(3S)-3-methylpiperidin-1-yl]methyl}-4-(trifluoromethyl)-3H-isoindol-1-one]
